According to ChEMBL document CHEMBL1130301, “Constrained -alanine based GpIIb/IIIa antagonists” (Bioorg Med Chem Lett, 1997):
Where a SMILES comes first, the peptide text is derived from it.

What follows are compounds tested against Integrin alpha-IIb/beta-3 (Homo sapiens, UniProt P05106+P08514) (assay: Inhibition of fibrinogen binding to activated human platelets).
Assay type: functional

Integrin alpha-IIb/beta-3, sequence (P05106 27-788 limits assumed): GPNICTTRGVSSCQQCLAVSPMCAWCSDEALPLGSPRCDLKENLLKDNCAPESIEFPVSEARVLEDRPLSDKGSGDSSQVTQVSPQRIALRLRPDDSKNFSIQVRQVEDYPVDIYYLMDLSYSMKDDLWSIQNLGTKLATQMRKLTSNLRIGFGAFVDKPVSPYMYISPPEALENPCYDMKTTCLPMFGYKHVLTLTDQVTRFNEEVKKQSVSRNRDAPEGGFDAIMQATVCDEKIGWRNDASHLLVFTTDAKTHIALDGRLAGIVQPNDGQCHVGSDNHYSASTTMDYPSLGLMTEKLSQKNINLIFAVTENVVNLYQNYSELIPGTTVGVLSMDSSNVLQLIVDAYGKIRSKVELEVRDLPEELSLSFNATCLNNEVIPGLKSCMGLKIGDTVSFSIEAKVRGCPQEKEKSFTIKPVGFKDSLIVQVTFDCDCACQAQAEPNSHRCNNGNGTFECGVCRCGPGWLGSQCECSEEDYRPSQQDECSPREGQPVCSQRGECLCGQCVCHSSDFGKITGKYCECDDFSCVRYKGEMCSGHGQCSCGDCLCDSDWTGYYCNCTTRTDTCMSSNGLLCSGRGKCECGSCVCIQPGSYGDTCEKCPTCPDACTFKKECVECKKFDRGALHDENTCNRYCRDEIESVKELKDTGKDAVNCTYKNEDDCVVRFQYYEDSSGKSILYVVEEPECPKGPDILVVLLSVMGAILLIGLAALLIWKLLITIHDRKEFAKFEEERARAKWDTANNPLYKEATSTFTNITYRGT
Integrin alpha-IIb/beta-3, sequence (P08514 32-887 limits assumed): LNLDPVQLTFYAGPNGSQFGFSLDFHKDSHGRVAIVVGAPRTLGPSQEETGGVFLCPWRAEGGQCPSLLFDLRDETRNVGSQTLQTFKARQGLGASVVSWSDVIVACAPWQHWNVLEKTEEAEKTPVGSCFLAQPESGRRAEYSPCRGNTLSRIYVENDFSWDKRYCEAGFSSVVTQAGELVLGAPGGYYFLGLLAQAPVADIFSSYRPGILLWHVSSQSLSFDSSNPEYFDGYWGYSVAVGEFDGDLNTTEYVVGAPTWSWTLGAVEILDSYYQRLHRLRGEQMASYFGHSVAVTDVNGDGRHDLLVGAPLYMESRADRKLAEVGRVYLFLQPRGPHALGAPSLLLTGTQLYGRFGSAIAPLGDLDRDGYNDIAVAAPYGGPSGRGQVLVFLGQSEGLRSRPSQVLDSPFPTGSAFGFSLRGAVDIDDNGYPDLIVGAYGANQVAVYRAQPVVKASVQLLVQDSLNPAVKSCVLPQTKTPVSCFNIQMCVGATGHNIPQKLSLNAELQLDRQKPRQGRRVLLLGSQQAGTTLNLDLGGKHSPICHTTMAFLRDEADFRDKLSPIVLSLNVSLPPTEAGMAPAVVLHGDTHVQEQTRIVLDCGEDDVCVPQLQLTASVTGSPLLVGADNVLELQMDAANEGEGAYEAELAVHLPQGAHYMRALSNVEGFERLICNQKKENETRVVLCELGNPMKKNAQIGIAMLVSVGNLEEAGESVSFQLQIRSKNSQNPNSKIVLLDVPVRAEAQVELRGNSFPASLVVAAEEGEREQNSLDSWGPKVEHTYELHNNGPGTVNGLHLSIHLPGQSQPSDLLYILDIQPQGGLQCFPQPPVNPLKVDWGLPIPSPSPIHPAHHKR
Integrin alpha-IIb/beta-3, sequence (P08514 891-1039 limits assumed): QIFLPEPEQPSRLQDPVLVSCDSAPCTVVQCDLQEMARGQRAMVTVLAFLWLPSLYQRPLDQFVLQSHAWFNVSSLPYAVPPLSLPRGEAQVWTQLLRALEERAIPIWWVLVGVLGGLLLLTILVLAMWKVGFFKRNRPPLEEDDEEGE

Compared with `CC(C)[C@H](NC(=O)[C@H](CC(=O)O)NC(=O)C[C@@H]1CCCCN1C(=O)/C=C/c1ccc(NC(=N)N)cc1)C(=O)O`, `CC(C)[C@H](NC(=O)[C@H](CC(=O)O)NC(=O)C[C@H]1CCCCN1C(=O)/C=C/c1ccc(NC(=N)N)cc1)C(=O)O` is higher in IC50: 200 nM for the first, over 20000 nM for the second. The first is the more potent here.

Compared with `CC(C)[C@H](NC(=O)[C@H](CC(=O)O)NC(=O)[C@@H]1CCCN(C(=O)/C=C/c2ccc(NC(=N)N)cc2)C1)C(=O)O`, `CC(C)[C@H](NC(=O)[C@H](CC(=O)O)NC(=O)[C@H]1CCCN(C(=O)/C=C/c2ccc(NC(=N)N)cc2)C1)C(=O)O` is 1.7-fold higher in IC50: 70 nM for the first, 120 nM for the second.

Compared with `CC(C)[C@H](NC(=O)[C@H](CC(=O)O)NC(=O)C1CN(C(=O)/C=C/c2ccc(NC(=N)N)cc2)C1)C(=O)O`, `CC(C)[C@H](NC(=O)[C@H](CC(=O)O)NC(=O)[C@@H]1CCN(C(=O)/C=C/c2ccc(NC(=N)N)cc2)C1)C(=O)O` is lower in IC50: over 20000 nM for the first, 3 nM for the second.

Compared with `CC(C)[C@H](NC(=O)[C@H](CC(=O)O)NC(=O)C[C@H]1CCCN1C(=O)/C=C/c1ccc(NC(=N)N)cc1)C(=O)O`, `CC(C)[C@H](NC(=O)[C@H](CC(=O)O)NC(=O)C[C@@H]1CCCN1C(=O)/C=C/c1ccc(NC(=N)N)cc1)C(=O)O` is 17-fold lower in IC50: 26000 nM for the first, 1500 nM for the second.

Going from `CC(C)[C@H](NC(=O)[C@H](CC(=O)O)NC(=O)C[C@H]1CCN1C(=O)/C=C/c1ccc(NC(=N)N)cc1)C(=O)O` to `CC(C)[C@H](NC(=O)[C@H](CC(=O)O)NC(=O)[C@H]1CCN(C(=O)/C=C/c2ccc(NC(=N)N)cc2)C1)C(=O)O`, the IC50 rises from 110 nM to 3000 nM (27-fold). The first is the more potent here.

First: CC(C)[C@H](NC(=O)[C@H](CC(=O)O)NC(=O)CCCNC(=O)/C=C/c1ccc(NC(=N)N)cc1)C(=O)O
Second: CC(C)[C@H](NC(=O)[C@H](CC(=O)O)NC(=O)CCNC(=O)/C=C/c1ccc(NC(=N)N)cc1)C(=O)O
The IC50 of the first is 290-fold higher: 70000 nM for the first, 240 nM for the second.

First: CC(C)[C@H](NC(=O)[C@H](CC(=O)O)NC(=O)CNC(=O)/C=C/c1ccc(NC(=N)N)cc1)C(=O)O
Second: CC(C)[C@H](NC(=O)[C@H](CC(=O)O)NC(=O)CCN(C)C(=O)/C=C/c1ccc(NC(=N)N)cc1)C(=O)O
The IC50 of the first is 25-fold higher: 5000 nM for the first, 200 nM for the second. The second is the more potent here.

First: CCN(CCC(=O)N[C@@H](CC(=O)O)C(=O)N[C@H](C(=O)O)C(C)C)C(=O)/C=C/c1ccc(NC(=N)N)cc1
Second: CC(C)[C@H](NC(=O)[C@H](CC(=O)O)NC(=O)CNC(=O)[C@@H](N)CCCN=C(N)N)C(=O)O (H-RGDV-OH)
The IC50 of the first is 27-fold lower: 220 nM for the first, 6000 nM for the second.
